Assay: Solubility in 0.2M K2CO3 solution (pH of a developer solution)
Format: physicochemical
Settings: room temperature

SMILES | Solubility of the active substance in K2CO3 0.2M solution
O=C([O-])CC(Nc1nc(Nc2ccccc2)nc(Nc2ccc(/C=C/c3ccc(Nc4nc(Nc5ccccc5)nc(NC(CC(=O)[O-])C(=O)[O-])n4)cc3S(=O)(=O)[O-])c(S(=O)(=O)[O-])c2)n1)C(=O)[O-].[Na+].[Na+].[Na+].[Na+].[Na+].[Na+] (stereo not shown) [B] | 25.6%
O=C([O-])CC(Nc1nc(Nc2ccc(/C=C/c3ccc(Nc4nc(Nc5cc(S(=O)(=O)[O-])ccc5S(=O)(=O)[O-])nc(NC(CC(=O)[O-])C(=O)[O-])n4)cc3S(=O)(=O)[O-])c(S(=O)(=O)[O-])c2)nc(Nc2cc(S(=O)(=O)[O-])ccc2S(=O)(=O)[O-])n1)C(=O)[O-].[Na+].[Na+].[Na+].[Na+].[Na+].[Na+].[Na+].[Na+].[Na+].[Na+] (stereo not shown) [C] | 39.0%
COc1nc(NCCS(=O)(=O)[O-])nc(Nc2ccc(/C=C/c3ccc(Nc4nc(OC)nc(N(CCO)CCO)n4)cc3S(=O)(=O)[O-])c(S(=O)(=O)[O-])c2)n1.[Na+].[Na+].[Na+] [Comp-1, reference compound] | 3.4%
O=S(=O)([O-])c1ccc(Nc2nc(Nc3ccc(/C=C/c4ccc(Nc5nc(Nc6ccc(S(=O)(=O)[O-])cc6S(=O)(=O)[O-])nc(N6CCOCC6)n5)cc4S(=O)(=O)[O-])c(S(=O)(=O)[O-])c3)nc(N3CCOCC3)n2)c(S(=O)(=O)[O-])c1.[Na+].[Na+].[Na+].[Na+].[Na+].[Na+] [Comp-3, reference compound] | 6.6%
O=C([O-])CN(CC(=O)[O-])c1nc(Nc2ccccc2)nc(Nc2ccc(/C=C/c3ccc(Nc4nc(Nc5ccccc5)nc(N(CC(=O)[O-])CC(=O)[O-])n4)cc3S(=O)(=O)[O-])c(S(=O)(=O)[O-])c2)n1.[Na+].[Na+].[Na+].[Na+].[Na+].[Na+] [E] | 38.5%
O=C(O)CN(CC(=O)O)c1nc(Nc2ccc(/C=C/c3ccc(Nc4nc(Nc5cc(S(=O)(=O)O)ccc5S(=O)(=O)O)nc(N(CC(=O)O)CC(=O)O)n4)cc3S(=O)(=O)O)c(S(=O)(=O)O)c2)nc(Nc2cc(S(=O)(=O)O)ccc2S(=O)(=O)O)n1.[Na+].[Na+].[Na+].[Na+].[Na+].[Na+].[Na+].[Na+].[Na+].[Na+] [G] | 32.0%
CN(CC(=O)[O-])c1nc(Nc2ccc(/C=C/c3ccc(Nc4nc(Nc5cc(S(=O)(=O)[O-])ccc5S(=O)(=O)[O-])nc(N(C)CC(=O)[O-])n4)cc3S(=O)(=O)[O-])c(S(=O)(=O)[O-])c2)nc(Nc2cc(S(=O)(=O)[O-])ccc2S(=O)(=O)[O-])n1.[Na+].[Na+].[Na+].[Na+].[Na+].[Na+].[Na+].[Na+] [H] | 32.0%

From patent US6890706B2, “Process for removing stain in a photographic material” (Ciba Specialty Chemicals Corporation, priority 1999, dated 2005)
